# From patent US7544814B2, “[3.2.0] Heterocyclic compounds and methods of using the same” (Nereus Pharmaceuticals, Inc., priority 2004, dated 2009)
# Where two headings read alike, the source gives them in different places.
# Assays:
# NF-κB = assay: NF-κB-mediated luciferase reporter gene assay, HEK293 NF-κB/Luc cells, TNF-α stimulation; format: cell-based, human; conditions: Homo sapiens, HEK293, Table 12; read-out: NF-κB EC50
# How it was run: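 Cells seeded at 1.5×10^4/well in phenol-red free DMEM, pretreated 1 h with 8-point half-log compound dilutions (DMSO stocks), then stimulated with TNF-α (10 μl of 50 ng/ml solution) for 6 h. Luciferase read as RLU after 10 min with Steady Lite reagent at room temperature.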
# RPMI 8226 = assay: cells; conditions: for EC50: Homo sapiens
# Protocol: RPMI 8226 (CCL-155), HT-29 (HTB-38), and B16-F10 (CRL-6475) cells were purchased from ATCC. RPMI 8226 cells were maintained in RPMI 1640 media supplemented with 10% (v/v) FBS, 2 mM L-glutamine, 1 mM sodium pyruvate and Penicillin/Streptomycin at 100 IU/ml and 100 μg/ml, respectively. HT-29 cells were maintained in McCoys 5A supplemented with 10% (v/v) FBS, 2 mM L-glutamine, 1 mM sodium pyruvate, 1% (v/v) non-essential amino acids, 10 mM HEPES and Penicillin/Streptomycin at 100 IU/ml and 100 μg/ml, respectively. B16-F10 cells were maintained in DMEM supplemented with 10% (v/v) FBS, 2 mM L-glutamine, 10 mM HEPES and Penicillin/Streptomycin at 100 IU/ml and 100 μg/ml, respectively.
# RPMI 8226 cells were seeded at 2×10^4 cells/well in 90 μl RPMI media containing 10% (v/v) FBS or 1% (v/v) FBS into 96 well black-walled, clear-bottom tissue culture plates. […] Formulae II-16, II-17 and Formula II-18 were serially diluted in media containing 1% or 10% FBS and added in triplicate to the test wells. […] The final concentration of Formula II-18 ranged from 2 μM to 630 pM.
# [1] = molecular target: T1, chymotrypsin-like activity of 20S proteasomes in PC-3 cells (Homo sapiens, UniProt P28074); assay: Chymotrypsin-like activity of 20S proteasomes in lysates of treated PC-3 cells; format: cell-based; conditions: for % inhibition of the chymotrypsin-like activity of 20S proteasomes in PC-3 cell lysates: 1 hr incubation
# T1 construct: endogenous in cells; host or cells: PC-3 (ATCC CRL-1435)
# Protocol: PC-3 (ATCC, CRL-1435), the human prostate cancer cell line, was cultured in F12K medium supplemented with 2 mM L-glutamine, 100 units/ml penicillin, 100 μg/ml streptomycin and 10% heat inactivated fetal bovine serum at 37° C., 5% CO2 and 95% humidified air. […] DMSO was used as the vehicle control at a final concentration of 0.1%. Following 1 hr incubation of PC-3 cells with the compounds, the cells were washed 3× with ice-cold 1× Dulbecco's Phosphate-Buffered Saline (DPBS, Mediatech, Herndon, Va.). […] Cell debris was pelleted by centrifugation at 14,000 rpm for 10 min, 4° C. and supernatants (=cell lysates) were transferred to a new tube. Protein concentration was determined by the BCA protein assay kit (Pierce Biotechnology, Rockford, Ill.). […] The released coumarin (AMC) was measured fluorometrically by using λex=390 nm and λem=460 nm. The assay was performed in a microtiter plate (Corning 3904) and followed kinetically with measurements every five minutes for 2 hr. The total amount of protein used for each assay was 20 μg. The final concentration of Suc-LLVY-AMC and DMSO was 20 μM and 0.2%, respectively. Results are presented as the percent inhibition of the 20S proteasome chymotrypsin-like activity relative to the DMSO control.
# B16-F10 = assay: Growth inhibition of B16-F10 in media containing 1% or 10% FBS; format: cell-based, mouse
# [2] = molecular target: T2, chymotrypsin-like activity of 20S proteasomes in RPMI 8226 cells (Homo sapiens, UniProt P28074); assay: Chymotrypsin-like activity of 20S proteasomes in lysates of treated RPMI 8226 cells; format: cell-based
# T2 construct: added to 2.5×10^5/ml RMPI 8226 cells; endogenous in cells; host or cells: RPMI 8226 (ATCC CCL-155)
# T2 sequence (P28074 60-263): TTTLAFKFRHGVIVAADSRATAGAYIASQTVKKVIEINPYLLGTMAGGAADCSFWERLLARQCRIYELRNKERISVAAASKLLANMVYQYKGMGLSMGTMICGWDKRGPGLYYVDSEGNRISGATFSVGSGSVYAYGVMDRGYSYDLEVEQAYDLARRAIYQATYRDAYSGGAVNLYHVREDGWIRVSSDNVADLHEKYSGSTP
# Protocol: RPMI 8226 (ATCC, CCL-155), the human multiple myeloma cell line, was cultured in RPMI 1640 medium supplemented with 2 mM L-glutamine, 100 units/ml penicillin, 100 μg/ml streptomycin, 1 mM sodium pyruvate and 10% heat inactivated fetal bovine serum at 37° C., 5% CO2 and 95% humidified air. […] DMSO was used as the vehicle control at a final concentration of 0.1%. Following 1 hr incubation of RMPI 8226 cells with the compounds, the cells were pelleted by centrifugation at 2,000 rpm for 10 sec at room temperature and washed 3× with ice-cold 1× Dulbecco's Phosphate-Buffered Saline (DPBS, Mediatech, Herndon, Va.). DPBS washed cells were lysed on ice for 15 min in lysis buffer (20 mM HEPES, 0.5 mM EDTA, 0.05% Triton X-100, pH 7.3) supplemented with protease inhibitor cocktail (Roche Diagnostics, Indianapolis, Ind.). Cell debris was pelleted by centrifugation at 14,000 rpm for 10 min, 4° C. and supernatants (=cell lysates) were transferred to a new tube. Protein concentration was determined by the BCA protein assay kit (Pierce Biotechnology, Rockford, Ill.). […] The released coumarin (AMC) was measured fluorometrically by using λex=390 nm and λem=460 nm. The assay was performed in a microtiter plate (Corning 3904) and followed kinetically with measurements every five minutes for 2 hr. The total amount of protein used for each assay was 20 μg. The final concentration of Suc-LLVY-AMC and DMSO was 20 μM and 0.2%, respectively.
# HT-29 = assay: Growth inhibition of HT-29 in media containing 1% or 10% FBS; format: cell-based, human; conditions: for EC50: Homo sapiens, HT-29, read-out: HT-29, EC50 (nM) mean ± SD
# [3] = PC-3, read-out: % inhibition of the chymotrypsin-like activity of 20S proteasomes in PC-3 cell lysates
# [4] = RPMI-8226, read-out: % inhibition of the chymotrypsin-like activity of 20S proteasomes in RPMI 8226 cell lysates
smiles,measurement,setting,value
C[C@@]12OC(=O)[C@]1([C@@H](O)[C@@H]1C=CCCC1)NC(=O)[C@@H]2CCCl [Formula II-16],EC50,NF-κB,11 ± 3 nM
same,"cytotoxicity against RPMI 8226 in media containing 1% or 10% FBS, in words",RPMI 8226; 1% or 10% FBS,cytotoxic
same,EC50,"RPMI 8226; RPMI-8226, read-out: 1% FBS, EC50, RPMI 8226, media containing 1% FBS, single experiments",6.2 nM
same,EC50,"RPMI 8226; RPMI-8226, read-out: 10% FBS, EC50, RPMI 8226, media containing 10% FBS, single experiments",12 nM
same,EC50,"RPMI 8226; RPMI-8226, read-out: Mean 10% FBS, EC50, RPMI 8226, media containing 10% FBS, mean",11 nM
same,% inhibition of the chymotrypsin-like activity of 20S proteasomes in PC-3 cell lysates,[1]; 5 nM,69%
same,% inhibition of the chymotrypsin-like activity of 20S proteasomes in PC-3 cell lysates,"[1]; 50 nM, 0.05 µM",completely inhibit
same,inhibition at 0.005 µM,[1]; [3],69%
same,inhibition at 0.05 µM,[1]; [3],98%
same,"cytotoxicity against B16-F10 in media containing 1% or 10% FBS, in words",B16-F10; 1% or 10% FBS,cytotoxic
same,EC50,"B16-F10; Mus musculus, B16-F10, read-out: B16-F10, EC50 (nM) mean ± SD, media containing 1% FBS",18 ± 9 nM
same,% inhibition of the chymotrypsin-like activity of 20S proteasomes in RPMI 8226 cell lysates,"[2]; 100 nM, 1 hr incubation, mean ± SD, n = 3, 0.1 µM",completely inhibit
same,inhibition at 0.001 µM,[2]; [4],30 ± 7%
same,inhibition at 0.005 µM,[2]; [4],85 ± 7%
same,inhibition at 0.01 µM,[2]; [4],94 ± 3%
same,inhibition at 0.05 µM,[2]; [4],97%
same,inhibition at 0.1 µM,[2]; [4],98 ± 1%
same,"cytotoxicity against HT-29 in media containing 1% or 10% FBS, in words",HT-29; 1% or 10% FBS,cytotoxic
same,EC50,HT-29; media containing 1% FBS,16 ± 5 nM
same,EC50,HT-29; media containing 10% FBS,23 ± 10 nM
